Laboratory results published in patent US20230382925A1, “MODULATORS OF CYSTIC FIBROSIS TRANSMEMBRANE CONDUCTANCE REGULATOR” (VERTEX PHARMACEUTICALS INCORPORATED, priority 2020, published 2023).

Tests used:
Assay type in all cases: cell-based
CFTR [1] = target: T1, CFTR (Homo sapiens, UniProt P13569, DEL508-508); test: HBE assay: Ussing chamber assay of CFTR-mediated short-circuit currents (F508del/MF-HBE, with 1 μM Ivacaftor); conditions: F508del/MF-HBE cells, 18-24 hours, 20% human serum; for EC50: range of concentrations with 1 μM Ivacaftor; for HBE Max Activity: with 1 μM Ivacaftor, compared to known Vertex corrector with 18 μM Tezacaftor and 1 μM Ivacaftor; for HBE Activity at 10 μM: single fixed concentration of 10 μM with 1 μM Ivacaftor
T1 construct: human bronchial epithelial (HBE) cells derived from CF subjects heterozygous for F508del; endogenous in cells; host or cells: primary human bronchial epithelial cells from CF subjects (F508del/MF-HBE)
T1 sequence (P13569 with tags, fused parts or gaps DEL508-508): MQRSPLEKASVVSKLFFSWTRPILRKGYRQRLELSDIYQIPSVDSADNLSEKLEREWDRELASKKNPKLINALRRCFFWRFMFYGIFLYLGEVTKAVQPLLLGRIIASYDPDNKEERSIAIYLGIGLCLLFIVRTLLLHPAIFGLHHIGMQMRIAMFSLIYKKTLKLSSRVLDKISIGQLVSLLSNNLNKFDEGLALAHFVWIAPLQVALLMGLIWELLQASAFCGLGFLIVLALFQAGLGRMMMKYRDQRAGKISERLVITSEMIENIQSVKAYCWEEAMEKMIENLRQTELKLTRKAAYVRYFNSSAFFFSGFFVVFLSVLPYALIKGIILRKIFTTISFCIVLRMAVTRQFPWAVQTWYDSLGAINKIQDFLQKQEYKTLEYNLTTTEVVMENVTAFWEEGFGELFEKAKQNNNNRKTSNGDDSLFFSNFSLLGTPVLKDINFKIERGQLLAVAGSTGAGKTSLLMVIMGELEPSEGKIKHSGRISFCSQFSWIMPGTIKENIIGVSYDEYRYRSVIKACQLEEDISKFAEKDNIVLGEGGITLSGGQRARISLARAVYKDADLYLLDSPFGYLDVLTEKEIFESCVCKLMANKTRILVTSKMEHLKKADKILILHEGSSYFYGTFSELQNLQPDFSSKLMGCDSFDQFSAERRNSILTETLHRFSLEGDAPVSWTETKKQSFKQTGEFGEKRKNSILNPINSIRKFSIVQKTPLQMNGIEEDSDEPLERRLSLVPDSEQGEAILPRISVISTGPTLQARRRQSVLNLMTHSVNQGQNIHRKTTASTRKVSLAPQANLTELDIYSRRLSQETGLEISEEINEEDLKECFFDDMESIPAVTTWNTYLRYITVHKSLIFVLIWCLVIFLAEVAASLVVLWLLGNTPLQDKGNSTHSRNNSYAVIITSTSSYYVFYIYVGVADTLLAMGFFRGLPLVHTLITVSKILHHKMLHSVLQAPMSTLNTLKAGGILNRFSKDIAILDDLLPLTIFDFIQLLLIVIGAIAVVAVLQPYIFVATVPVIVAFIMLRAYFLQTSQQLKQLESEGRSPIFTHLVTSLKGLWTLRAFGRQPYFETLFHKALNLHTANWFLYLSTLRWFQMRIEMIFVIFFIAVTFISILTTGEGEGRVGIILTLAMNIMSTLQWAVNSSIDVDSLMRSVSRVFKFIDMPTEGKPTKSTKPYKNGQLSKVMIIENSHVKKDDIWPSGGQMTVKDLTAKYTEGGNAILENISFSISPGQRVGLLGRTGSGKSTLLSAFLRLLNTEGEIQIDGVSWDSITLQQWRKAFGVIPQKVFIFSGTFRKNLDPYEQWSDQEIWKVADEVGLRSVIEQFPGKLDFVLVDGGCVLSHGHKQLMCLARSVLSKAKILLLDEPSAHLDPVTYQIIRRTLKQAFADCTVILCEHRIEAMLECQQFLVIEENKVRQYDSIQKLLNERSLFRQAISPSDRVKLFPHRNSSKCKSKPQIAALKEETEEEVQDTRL
Method: 1. Ussing Chamber Assay of CFTR-mediated short-circuit currents
Ussing chamber experiments were performed using human bronchial epithelial (HBE) cells derived from CF subjects heterozygous for F508del and a minimal function CFTR mutation (F508del/MF-HBE) and cultured as previously described (Neuberger T, Burton B, Clark H, Van Goor F Methods Mol Biol 2011:741:39-54). After four days the apical media was removed, and the cells were grown at an air liquid interface for >14 days prior to use.
To isolate the CFTR-mediated short-circuit (ISC) current, F508del/MF-HBE grown on Costar® Snapwell™ cell culture inserts were mounted in an Ussing chamber and the transepithelial ISC was measured under voltage-clamp recording conditions (Vhold=0 mV) at 37° C. The basolateral solution contained (in mM) 145 NaCl, 0.83 K2HPO4, 3.3 KH2PO4, 1.2 MgCl2, 1.2 CaCl2), 10 Glucose, 10 HEPES (pH adjusted to 7.4 with NaOH) and the apical solution contained (in mM) 145 NaGluconate, 1.2 MgCl2, 1.2 CaCl2), 10 glucose, 10 HEPES (pH adjusted to 7.4 with NaOH) and 30 μM amiloride to block the epithelial sodium channel. Forskolin (20 μM) was added to the apical surface to activate CFTR, followed by apical addition of a CFTR inhibitor cocktail consisting of BPO, GlyH-101, and CFTR inhibitor 172 (each at 20 μM final assay concentration) to specifically isolate CFTR currents. The CFTR-mediated ISC (μA/cm^2) for each condition was determined from the peak forskolin response to the steady-state current following inhibition.
2. Identification of Corrector Compounds
The activity of the CFTR corrector compounds on the CFTR-mediated ISC was determined in Ussing chamber studies as described above. The F508del/MF-HBE cell cultures were either incubated with the corrector compounds at a range of concentrations in combination with 1 μM Ivacaftor or were incubated with the corrector compounds at a single fixed concentration of 10 μM in combination with 1 μM Ivacaftor for 18-24 hours at 37° C. and in the presence of 20% human serum. The concentration of corrector compounds with 1 μM Ivacaftor during the 18-24 hours incubations was kept constant throughout the Ussing chamber measurement of the CFTR-mediated ISC to ensure compounds were present throughout the entire experiment.

CFTR [2] = target: T2, CFTR (Homo sapiens, UniProt P13569); test: Membrane Potential Dye, Enteroid Assay A; conditions: for EC50: read-out: Ent. A EC50
T2 sequence (P13569 with tags, fused parts or gaps DEL508-508): as above
Method in brief: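 Primary human intestinal enteroid cells exposed to compound for 18–24 hours at 37 °C, then loaded 25 min with methyl oxonol membrane potential dye plus CaCC inhibitors. Chloride transport triggered in chloride-free buffer with 10 μM forskolin, 100 μM IBMX and 300 nM Compound III, fluorescence read 15 min; % Activity relative to a triple-combination corrector/potentiator control.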

CFTR [3] = target: T2, CFTR; test: Membrane Potential Dye, Enteroid Assay B; conditions: for EC50: read-out: Ent. B EC50
Method in brief: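 Activity given as % of a triple-combination reference (1 μM and 3 μM correctors, 300 nM acute potentiator). Enteroids were preincubated 18-24 h with compound; chloride efflux then measured 15 min by methyl oxonol fluorescence after forskolin/IBMX/Compound III stimulation in chloride-free buffer containing CaCCinh-A01 and Chicago Sky Blue.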

EC50 (CFTR [1])	HBE Max Activity (CFTR [1])	HBE Activity at 10 μM (CFTR [1])	Ent. A Max Activity (%) (CFTR [2])	EC50 (CFTR [2])	Ent. B Max Activity (%) (CFTR [3])	EC50 (CFTR [3])	Structure (SMILES)
< 1000 nM	+++ (+++ is >60%)	–	–	–	–	–	Cc1cccc(C)c1-c1cc2nc(n1)NS(=O)(=O)c1cccc(c1)C(=O)N(C1CC3(C1)CC(O)(Cc1ccccc1)C3)[C@H](CC(C)(C)C)CO2 (stereo in doubt) [Compound 431]
< 1000 nM	+++ (+++ is >60%)	–	–	–	–	–	Cc1cccc(C)c1-c1cc2nc(n1)NS(=O)(=O)c1cccc(c1)C(=O)N(C1CC3(CCCN3C(=O)CO)C1)[C@H](CC(C)(C)C)CO2 (stereo in doubt) [Compound 206]
–	–	++ (++ is 30-60%)	–	–	–	–	Cc1cccc(CO)c1-c1cc2nc(n1)NS(=O)(=O)c1cccc(c1)C(=O)N([C@H]1CC3(C[C@H](NC(=O)OC(C)C)C3)C1)[C@H](CC(C)(C)C)CO2 (stereo in doubt) [Compound 403]
< 1000 nM	+++ (+++ is >60%)	–	–	–	–	–	Cc1cccc(C)c1-c1cc2nc(n1)NS(=O)(=O)c1cccc(c1)C(=O)N([C@H]1C[C@@]3(CCCN(C(=O)CO)C3)C1)[C@H](CC(C)(C)C)CO2 (single isomer, unassigned) [Compound 144]
–	–	+++ (+++ is >60%)	–	–	–	–	Cc1cccc(C)c1-c1cc2nc(n1)NS(=O)(=O)c1cccc(c1)C(=O)N([C@H]1CC3(C[C@H](N(C)CCC(F)(F)F)C3)C1)[C@H](CC1(C(F)(F)F)CC1)CO2 (stereo in doubt) [Compound 219]
–	–	+++ (+++ is >60%)	–	–	–	–	Cc1cccc(C)c1-c1cc2nc(n1)NS(=O)(=O)c1cccc(c1)C(=O)N(C1CC3(CCCCN3C(=O)CO)C1)[C@H](CC(C)(C)C)CO2 (stereo in doubt) [Compound 204]
< 1000 nM	+++ (+++ is >60%)	–	–	–	–	–	Cc1cccc(C)c1-c1cc2nc(n1)NS(=O)(=O)c1cccc(c1)C(=O)N([C@H]1C[C@@]3(C[C@H](NCCC(F)(F)F)C3)C1)[C@H](CC1(C(F)(F)F)CC1)CO2 (stereo partly shown) [Compound 218]
< 1000 nM	+++ (+++ is >60%)	–	–	–	–	–	Cc1cccc(C)c1-c1cc2nc(n1)NS(=O)(=O)c1cccc(c1)C(=O)N([C@H]1C[C@@H](N3CCOCC3)C1)[C@H](CC(C)(C)C)CO2 [Compound 178, (11R)-6-(2,6-Dimethylphenyl)-11-(2,2-dimethylpropyl)-12-(3-morpholinocyclobutyl)-2,2-dioxo-9-oxa-2λ^6-thia-3,5,12,19-tetrazatricyclo[12.3.1.14,8]nonadeca-1(18),4(19),5,7,14,16-hexaen-13-one]
–	–	–	+++ (+++ is >60%)	< 1000 nM	+++ (+++ is >60%)	< 1000 nM	COC(=O)NC1CC2(C1)CC(N1C(=O)c3cccc(c3)S(=O)(=O)Nc3nc(cc(-c4c(C)cccc4C)n3)OC[C@H]1CC(C)C)C2 (stereo partly shown) [Compound 326]
–	–	–	+++ (+++ is >60%)	< 1000 nM	+++ (+++ is >60%)	< 1000 nM	Cc1cccc(C)c1-c1cc2nc(n1)NS(=O)(=O)c1cccc(c1)C(=O)N(C1CC3(CCN(CCF)CC3)C1)[C@H](CC(C)C)CO2 [Compound 321]
–	–	–	+++ (+++ is >60%)	< 1000 nM	+++ (+++ is >60%)	< 1000 nM	Cc1cccc(C)c1-c1cc2nc(n1)NS(=O)(=O)c1cccc(c1)C(=O)N(C1CC3(CCN(C)CC3)C1)CC(CC(C)C)(CC(C)C)CO2 (stereo not shown) [Compound 311]
–	–	–	+++ (+++ is >60%)	< 1000 nM	+++ (+++ is >60%)	< 1000 nM	COC(=O)N1CCC2(CC1)CC(N1C(=O)c3cccc(c3)S(=O)(=O)Nc3nc(cc(-c4c(C)cccc4C)n3)OC[C@H]1CC(C)C)C2 [Compound 19, methyl 2-[(11R)-6-(2,6-dimethylphenyl)-11-isobutyl-2,2,13-trioxo-9-oxa-2λ^6-thia-3,5,12,19-tetrazatricyclo[12.3.1.14,8]nonadeca-1(18),4(19),5,7,14,16-hexaen-12-yl]-7-azaspiro[3.5]nonane-7-carboxylate]
–	–	–	+++ (+++ is >60%)	< 1000 nM	++ (++ is 30-60%)	< 1000 nM	Cc1cccc(C)c1-c1cc2nc(n1)NS(=O)(=O)c1cccc(c1)C(=O)N([C@H]1C[C@@H](NC(=O)OC(C)(C)C)C1)[C@H](CC(C)C)CO2 [Compound 349]

More lines, now with the values behind:

Structure (SMILES)	EC50 (CFTR [1])	HBE Max Activity (CFTR [1])	HBE Activity at 10 μM (CFTR [1])	Ent. A Max Activity (%) (CFTR [2])	EC50 (CFTR [2])	Ent. B Max Activity (%) (CFTR [3])	EC50 (CFTR [3])
Cc1cccc(C)c1-c1cc2nc(n1)NS(=O)(=O)c1cccc(c1)C(=O)N([C@H]1C[C@](C)(O)C1)[C@H](CC(C)(C)C)CO2 (single isomer, unassigned) [Compound 139]	< 1000 nM	+++ (+++ is >60%)	–	–	–	–	–
Cc1cccc(C)c1-c1cc2nc(n1)NS(=O)(=O)c1cccc(c1)C(=O)N(C1CC3(CC(N4CCOCC4)C3)C1)[C@H](CC(C)(C)C)CO2 (single isomer, unassigned) [Compound 432]	< 1000 nM	+++ (+++ is >60%)	–	–	–	–	–
Cc1cccc(C)c1-c1cc2nc(n1)NS(=O)(=O)c1cccc(c1)C(=O)N(C1CC(N3C[C@@H](C)O[C@@H](C)C3)C1)[C@H](CC(C)(C)C)CO2 (stereo in doubt) [Compound 434]	–	–	+++ (+++ is >60%)	–	–	–	–
Cc1cccc(C)c1-c1cc2nc(n1)NS(=O)(=O)c1cccc(c1)C(=O)N(c1cnn(CC(=O)OC(C)(C)C)c1)[C@H](CC(C)(C)C)CO2 [Compound 427]	< 1000 nM	+++ (+++ is >60%)	–	–	–	–	–
Cc1cccc(CO)c1-c1cc2nc(n1)NS(=O)(=O)c1cccc(c1)C(=O)N([C@H]1CC3(C[C@H](NC(=O)OC(C)C)C3)C1)[C@H](CC(C)(C)C)CO2 (stereo in doubt) [Compound 402]	–	–	++ (++ is 30-60%)	–	–	–	–
Cc1cccc(CO)c1-c1cc2nc(n1)NS(=O)(=O)c1cccc(c1)C(=O)N(C1CC3(CC(NC(=O)OC(C)C)C3)C1)[C@H](CC(C)(C)C)CO2 (stereo partly shown) [Compound 209]	–	–	++ (++ is 30-60%)	–	–	–	–
Cc1cccc(C)c1-c1cc2nc(n1)NS(=O)(=O)c1cccc(c1)C(=O)N([C@H]1CC3(C[C@H](C(=O)N(C)C)C3)C1)[C@H](CC(C)C)CO2 (stereo partly shown) [Compound 343]	–	–	–	+++ (+++ is >60%)	< 1000 nM	+++ (+++ is >60%)	< 1000 nM
CNC(=O)[C@H]1CC2(C1)C[C@H](N1C(=O)c3cccc(c3)S(=O)(=O)Nc3nc(cc(-c4c(C)cccc4C)n3)OC[C@H]1CC(C)C)C2 (stereo in doubt) [Compound 346]	–	–	–	+++ (+++ is >60%)	< 1000 nM	+++ (+++ is >60%)	< 1000 nM
Cc1cccc(C)c1-c1cc2nc(n1)NS(=O)(=O)c1cccc(c1)C(=O)N(C1CN(C(=O)OCc3ccccc3)C1)[C@H](CC(C)C)CO2 [Compound 100, Benzyl 3-[(11R)-6-(2,6-dimethylphenyl)-11-isobutyl-2,2,13-trioxo-9-oxa-2λ^6-thia-3,5,12,19-tetrazatricyclo[12.3.1.14,8]nonadeca-1(18),4(19),5,7,14,16-hexaen-12-yl]azetidine-1-carboxylate]	–	–	–	+++ (+++ is >60%)	< 1000 nM	+++ (+++ is >60%)	< 1000 nM
CC(=O)N1CCC2(CC1)CC(N1C(=O)c3cccc(c3)S(=O)(=O)Nc3nc(cc(-c4c(C)cccc4C)n3)OC[C@H]1CC(C)C)C2 [Compound 16, (11R)-12-(7-Acetyl-7-azaspiro[3.5]nonan-2-yl)-6-(2,6-dimethylphenyl)-11-isobutyl-2,2-dioxo-9-oxa-2λ^6-thia-3,5,12,19-tetrazatricyclo[12.3.1.14,8]nonadeca-1(18),4(19),5,7,14,16-hexaen-13-one]	–	–	–	+++ (+++ is >60%)	< 1000 nM	+++ (+++ is >60%)	< 1000 nM
